Results from PubChem BioAssay AID1963436 (Molecular Pharmacology Branch, DTP, NCI, 2024).
pIC50: −log10 of the molar value.

Test system: OVCAR-5 complex spheroid (HUVEC/MSC), viability % T/C
Assay: Anticancer human tumor OVCAR-5 cell line growth inhibition [Asc];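 further: spheroids exposed to agents for 7 days before readout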;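 on viability, T/C: 100% = DMSO vehicle-treated wells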
Conditions: for pIC50: curve of first compound; for viability, T/C: stronger effect = lower value
Outline: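 Tumor cells were grown as complex spheroids with human endothelial cells (HUVEC) and human mesenchymal stem cells as stroma. Agents were tested alone and in combination, in half-log steps down from the clinical Cmax, or from 10 microM where Cmax was unknown.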

What does the source list for `Cc1nc(N2CCC3(CC2)COC(C)C3N)c(CO)nc1Sc1ccnc(N)c1Cl` (stereo not given) + Cc1c(S(C)(=O)=O)c(-c2cc(F)cc(N3CCN(c4ccc(NS(=O)(=O)c5ccc(NC(CCN6CCC(C(=O)OCCCP(=O)(O)O)CC6)CSc6ccccc6)c(S(=O)(=O)C(F)(F)F)c5)cc4)CC3)c2)c(-c2ccc(Cl)cc2)n1C(C)C?
pIC50 (second compound 0.1 µM): 5.72; pIC50 (second compound 0.316 µM): 5.95; pIC50 (second compound 1 µM): 5.92; pIC50 (second compound 3.16 µM): 6.11; pIC50 (second compound 10 µM): 5.55; viability, T/C (second compound 0.1 µM, first compound 0.00949 µM): 96.4%; viability, T/C (second compound 0.1 µM, first compound 0.03 µM): 83.9%; viability, T/C (second compound 0.1 µM, first compound 0.0949 µM): 81.7%; viability, T/C (second compound 0.1 µM, first compound 0.3 µM): 62.8%; viability, T/C (second compound 0.1 µM, first compound 0.949 µM): 55.7%; viability, T/C (second compound 0.1 µM, first compound 3 µM): 46.9%; viability, T/C (second compound 0.316 µM, first compound 0.00949 µM): 95.8%; viability, T/C (second compound 0.316 µM, first compound 0.03 µM): 85.1%; viability, T/C (second compound 0.316 µM, first compound 0.0949 µM): 73.9%; viability, T/C (second compound 0.316 µM, first compound 0.3 µM): 55.6%; viability, T/C (second compound 0.316 µM, first compound 0.949 µM): 55.2%; viability, T/C (second compound 0.316 µM, first compound 3 µM): 42.9%; viability, T/C (second compound 1 µM, first compound 0.00949 µM): 78.1%; viability, T/C (second compound 1 µM, first compound 0.03 µM): 76.9%; viability, T/C (second compound 1 µM, first compound 0.0949 µM): 72.4%; viability, T/C (second compound 1 µM, first compound 0.3 µM): 68.4%; viability, T/C (second compound 1 µM, first compound 0.949 µM): 51.1%; viability, T/C (second compound 1 µM, first compound 3 µM): 42.6%; viability, T/C (second compound 3.16 µM, first compound 0.00949 µM): 87.7%; viability, T/C (second compound 3.16 µM, first compound 0.03 µM): 85%; viability, T/C (second compound 3.16 µM, first compound 0.0949 µM): 72.5%; viability, T/C (second compound 3.16 µM, first compound 0.3 µM): 59.9%; viability, T/C (second compound 3.16 µM, first compound 0.949 µM): 45.6%; viability, T/C (second compound 3.16 µM, first compound 3 µM): 46.9%; viability, T/C (second compound 10 µM, first compound 0.00949 µM): 105%; viability, T/C (second compound 10 µM, first compound 0.03 µM): 94%; viability, T/C (second compound 10 µM, first compound 0.0949 µM): 88.6%; viability, T/C (second compound 10 µM, first compound 0.3 µM): 87.3%; viability, T/C (second compound 10 µM, first compound 0.949 µM): 64.8%; viability, T/C (second compound 10 µM, first compound 3 µM): 49%
